Measurements from ChEMBL document CHEMBL1127102, “Structure-activity relationships of 2,3-benzodiazepine compounds with glutamate antagonistic action” (Bioorg Med Chem Lett, 1993).

Columns and labels:
Mus musculus [1] = assay: Tested in vivo for anticonvulsant activity using MES, MMS and IS relative potency compared to GYKI 52466; type: functional
Rattus norvegicus [2] = organism: Rattus norvegicus; assay: Tested in vitro for the relative potency against neuronal responses mediated by the non-NMDA type glutamate receptor compared to GYKI 52466; type: functional
Mus musculus [3] = organism: Mus musculus; assay: Tested in vitro for the oral anticonvulsant activity by MES test; type: functional, organism-based
Mus musculus [4] = assay: Tested in vivo for the oral anticonvulsant activity by MES test; type: functional
Mus musculus [5] = assay: Tested in vivo for the anticonvulsant activity by MMS test. 95% confidence limits are in brackets; type: functional
Mus musculus [6] = assay: Tested in vivo for the anticonvulsant activity by MES test. 95% confidence limits are in brackets; type: functional
Mus musculus [7] = assay: Tested in vivo for the anticonvulsant activity by IS test.; type: functional
Rattus norvegicus [8] = organism: Rattus norvegicus; assay: Tested in vitro for the anticonvulsant activity (IC50 value was determined after 30 min perfusion application by MES test); type: functional, organism-based; conditions: 0.5 h

SMILES | Relative potency (Mus musculus [1]) | Relative potency (Rattus norvegicus [2]) | other results
CC1Cc2cc3c(cc2C(c2ccc(N)cc2)=NN1C(=O)Nc1ccccc1)OCO3 (centres undefined) | 0.13 |  | 
CC(=O)N1N=C(c2ccc(N)cc2)c2cc3c(cc2C[C@H]1C)OCO3 [TALAMPANEL] | 2.74 | 1.12 | 
CC1Cc2cc3c(cc2C(c2ccc(N)cc2)=NN1C(=O)CN)OCO3 (centres undefined) | 0 | 0.1 | 
CC(N)C(=O)N1N=C(c2ccc(N)cc2)c2cc3c(cc2CC1C)OCO3 (centres undefined) | 0.08 | 0 | 
COCC(=O)N1N=C(c2ccc(N)cc2)c2cc3c(cc2CC1C)OCO3 (centres undefined) | 1.02 |  | 
CNC(=O)N1N=C(c2ccc(N)cc2)c2cc3c(cc2CC1C)OCO3 (centres undefined) [GYKI-53655] | 4.39 | 2.46 | IC50 (Mus musculus [3]): 12 µM; ED50 (Mus musculus [4]): 8.4 mg/kg
CC1Cc2cc3c(cc2C(c2ccc(N)cc2)=NN1C=O)OCO3 (centres undefined) | 1.72 | 0.44 | 
CC1Cc2cc3c(cc2C(c2ccc(N)cc2)=NN1C(=O)C1CC1)OCO3 (centres undefined) | 1.66 | 1.48 | 
CCC(=O)N1N=C(c2ccc(N)cc2)c2cc3c(cc2CC1C)OCO3 (centres undefined) | 2.55 | 1.55 | 
CC1Cc2cc3c(cc2C(c2ccc(N)cc2)=NN1C(=O)c1ccccc1)OCO3 (centres undefined) | 0 |  | 
CCCCC(=O)N1N=C(c2ccc(N)cc2)c2cc3c(cc2CC1C)OCO3 (centres undefined) | 0 | 0.22 | 
CCCCNC(=O)N1N=C(c2ccc(N)cc2)c2cc3c(cc2CC1C)OCO3 (centres undefined) | 0.35 | 0.65 | 
CC1Cc2cc3c(cc2C(c2ccc(N)cc2)=NN1C(=O)CN(C)C)OCO3 (centres undefined) | 0 |  | 
CC1Cc2cc3c(cc2C(c2ccc(N)cc2)=NN1C(=O)C(F)(F)F)OCO3 (centres undefined) | 0 |  | 
CC1Cc2cc3c(cc2C(c2ccc(N)cc2)=NN1C(=O)Cc1ccccc1)OCO3 (centres undefined) | 0 |  | 
CC1=NN=C(c2ccc(N)cc2)c2cc3c(cc2C1)OCO3 [GYKI-52466] |  |  | ED50 (Mus musculus [5]): 107 mg/kg; ED50 (Mus musculus [6]): 30.6 mg/kg; ED50 (Mus musculus [7]): 45.1 mg/kg; IC50 (Rattus norvegicus [8]): 29.5 µM
CC1Cc2cc3c(cc2C(c2ccc(N)cc2)=NN1C(=O)CC#N)OCO3 (centres undefined) | 0.21 |  | 
CNCC(=O)N1N=C(c2ccc(N)cc2)c2cc3c(cc2CC1C)OCO3 (centres undefined) | 0 | 0.02 | 
CC1Cc2cc3c(cc2C(c2ccc(N)cc2)=NN1C(=O)C(C)(C)C)OCO3 (centres undefined) | 0 |  | 
